The record followed here is ChEMBL document CHEMBL1275583, “First report of KPC-2-producing Klebsiella pneumoniae strains in Brazil” (2009).

Values after ≈ are worked out from the molar mass of the structure shown.

The test system of test [1] is Klebsiella pneumoniae. Briefly: Antibacterial activity against Klebsiella pneumoniae urine isolate A28009 PFGE pattern A expressing KPC-2, TEM-1, SHV-11, CTX-M-2 beta-lactamase by agar dilution method. In kind it is functional.
In test [2] the test system is Klebsiella pneumoniae. Description: Antibacterial activity against Klebsiella pneumoniae blood isolate A28008 PFGE pattern A expressing KPC-2, TEM-1, SHV-11, CTX-M-2 beta-lactamase by agar dilution method. In kind it is functional. (In agar dilution the substance is mixed into plates at graded concentrations.)
The subject of test [3] is Klebsiella pneumoniae. Description: Antibacterial activity against Klebsiella pneumoniae blood isolate A28006 PFGE pattern A expressing KPC-2, TEM-1, SHV-11, CTX-M-2 beta-lactamase by agar dilution method. In kind it is functional.
Test [4] concerns Escherichia coli. Briefly: Antibacterial activity against Escherichia coli DH10B by agar dilution method. Type of test: functional. The settings on record: K-12 DH10B.
Test [5] concerns Klebsiella pneumoniae. Description: Antibacterial activity against Klebsiella pneumoniae urine isolate A28011 PFGE pattern A expressing KPC-2 CTX-M-2 beta-lactamase by agar dilution method. In kind it is functional.
In test [6] the test system is Escherichia coli. Description: microbe, parasite or virus in culture. Particulars: K-12 DH10B.
Description: (§1) Antibacterial activity against Escherichia coli DH10B expressing KPC-2 CTX-M-2 by agar dilution method
Test [7] concerns Klebsiella pneumoniae. Description: Antibacterial activity against Klebsiella pneumoniae urine isolate A28009 PFGE pattern A expressing KPC-2, TEM-1, SHV-11, CTX-M-2 beta-lactamase by agar dilution method in presence of Tazobactam. Type of test: functional.
Test [8] has as its system Klebsiella pneumoniae. Description: Antibacterial activity against Klebsiella pneumoniae blood isolate A28008 PFGE pattern A expressing KPC-2, TEM-1, SHV-11, CTX-M-2 beta-lactamase by agar dilution method in presence of Tazobactam. In kind it is functional.
In test [9] the test system is Klebsiella pneumoniae. Briefly: Antibacterial activity against Klebsiella pneumoniae blood isolate A28006 PFGE pattern A expressing KPC-2, TEM-1, SHV-11, CTX-M-2 beta-lactamase by agar dilution method in presence of Tazobactam. In kind it is functional.
The test system of test [10] is Klebsiella pneumoniae. Briefly: Antibacterial activity against Klebsiella pneumoniae urine isolate A28011 PFGE pattern A expressing KPC-2, CTX-M-2 beta-lactamase by agar dilution method in presence of Tazobactam. In kind it is functional.
Test [11] relates to Klebsiella pneumoniae. Description: Antibacterial activity against Klebsiella pneumoniae urine isolate A28009 PFGE pattern A expressing KPC-2, TEM-1, SHV-11, CTX-M-2 beta-lactamase by Etest method. In kind it is functional.
Test [12] has as its system Klebsiella pneumoniae. Description: Antibacterial activity against Klebsiella pneumoniae blood isolate A28008 PFGE pattern A expressing KPC-2, TEM-1, SHV-11, CTX-M-2 beta-lactamase by Etest method. Type of test: functional.
Test [13] relates to Klebsiella pneumoniae. Briefly: Antibacterial activity against Klebsiella pneumoniae blood isolate A28006 PFGE pattern A expressing KPC-2, TEM-1, SHV-11, CTX-M-2 beta-lactamase by Etest method. Type of test: functional.
The test system of test [14] is Escherichia coli. Briefly: Antibacterial activity against Escherichia coli DH10B expressing KPC-2 CTX-M-2 by Etest method. Type of test: functional. Particulars: K-12 DH10B.
The subject of test [15] is Escherichia coli. Description: Antibacterial activity against Escherichia coli DH10B by Etest method. Particulars: K-12 DH10B. In kind it is functional.
Test [16] relates to Klebsiella pneumoniae. Briefly: Antibacterial activity against Klebsiella pneumoniae urine isolate A28011 PFGE pattern A expressing KPC-2, CTX-M-2 beta-lactamase by Etest method. Type of test: functional.
The test system of test [17] is Escherichia coli. The settings on record: K-12 DH10B.
Description: as §1

On to `CO/N=C(\C(=O)N[C@@H]1C(=O)N2C(C(=O)[O-])=C(C[N+]3(C)CCCC3)CS[C@H]12)c1csc(N)n1`, for which the MIC was 64 µg/mL (≈ 133 µM) against Klebsiella pneumoniae [1]; 32 µg/mL (≈ 66.6 µM) in the test with Klebsiella pneumoniae [2]; 128 µg/mL (≈ 266 µM) against Klebsiella pneumoniae [3]; 0.25 µg/mL (≈ 0.52 µM) against Escherichia coli [4]; > 256 µg/mL against Klebsiella pneumoniae [5]; 2 µg/mL (≈ 4.16 µM) in the test on Escherichia coli [6].
For `C[C@H]1[C@H](NC(=O)/C(=N\OC(C)(C)C(=O)O)c2csc(N)n2)C(=O)N1S(=O)(=O)O` [AZTREONAM], the MIC in the test on Klebsiella pneumoniae [1] is > 256 µg/mL; with Klebsiella pneumoniae [2], 64 µg/mL (≈ 147 µM); in the test on Klebsiella pneumoniae [5], > 256 µg/mL; in the test with Escherichia coli [6], 32 µg/mL (≈ 73.5 µM).
For the molecule `CO/N=C(\C(=O)N[C@@H]1C(=O)N2C(C(=O)O)=C(COC(C)=O)CS[C@H]12)c1csc(N)n1` [CEFOTAXIME], the MIC in the test on Klebsiella pneumoniae [1] is > 256 µg/mL; in the test on Klebsiella pneumoniae [2] it was > 256 µg/mL; against Klebsiella pneumoniae [3] it was > 256 µg/mL; against Escherichia coli [4] it was < 0.25 µg/mL; in the test with Klebsiella pneumoniae [5], > 256 µg/mL; with Escherichia coli [6], 4 µg/mL (≈ 8.78 µM).
On to `CO[C@@]1(NC(=O)Cc2cccs2)C(=O)N2C(C(=O)O)=C(COC(N)=O)CS[C@@H]21` [CEFOXITIN], for which the MIC in the test with Klebsiella pneumoniae [1] was 64 µg/mL (≈ 150 µM); with Klebsiella pneumoniae [2] it was 16 µg/mL (≈ 37.4 µM); with Klebsiella pneumoniae [3] it was 32 µg/mL (≈ 74.9 µM); with Escherichia coli [4], 4 µg/mL (≈ 9.36 µM); in the test with Klebsiella pneumoniae [5] it was > 256 µg/mL; in the test with Escherichia coli [6], 8 µg/mL (≈ 18.7 µM).
On to `CC(C)(O/N=C(\C(=O)N[C@@H]1C(=O)N2C(C(=O)[O-])=C(C[n+]3ccccc3)CS[C@H]12)c1csc(N)n1)C(=O)O` [CEFTAZIDIME], for which the MIC was 32 µg/mL (≈ 58.5 µM) with Klebsiella pneumoniae [1]; 16 µg/mL (≈ 29.3 µM) with Klebsiella pneumoniae [2]; 16 µg/mL (≈ 29.3 µM) in the test on Klebsiella pneumoniae [3]; 0.25 µg/mL (≈ 0.457 µM) against Escherichia coli [4]; 64 µg/mL (≈ 117 µM) against Klebsiella pneumoniae [5]; 4 µg/mL (≈ 7.32 µM) in the test with Escherichia coli [6].
As for `CO/N=C(\C(=O)N[C@@H]1C(=O)N2C(C(=O)O)=C(CSc3nc(=O)c(O)nn3C)CS[C@H]12)c1csc(N)n1` [CEFTRIAXONE], the MIC against Klebsiella pneumoniae [1] is > 256 µg/mL; in the test with Klebsiella pneumoniae [2], > 256 µg/mL; in the test with Klebsiella pneumoniae [3], > 256 µg/mL; against Escherichia coli [4], 0.06 µg/mL (≈ 0.108 µM); with Klebsiella pneumoniae [5], > 256 µg/mL; with Escherichia coli [6], > 256 µg/mL.
As for `C[C@@H](O)[C@H]1C(=O)N2C(C(=O)O)=C(SCCNC=N)C[C@H]12` [IMIPENEM ANHYDROUS], the MIC is 32 µg/mL (≈ 107 µM) in the test on Klebsiella pneumoniae [1]; 32 µg/mL (≈ 107 µM) in the test with Klebsiella pneumoniae [2]; 4 µg/mL (≈ 13.4 µM) in the test on Klebsiella pneumoniae [3]; 16 µg/mL (≈ 53.4 µM) with Klebsiella pneumoniae [5]; 2 µg/mL (≈ 6.68 µM) against Escherichia coli [6].
In the case of `C[C@@H](O)[C@H]1C(=O)N2C(C(=O)O)=C(S[C@@H]3CN[C@H](C(=O)N(C)C)C3)[C@H](C)[C@H]12` [MEROPENEM], the MIC in the test with Klebsiella pneumoniae [1] was > 32 µg/mL; with Klebsiella pneumoniae [2] it was 4 µg/mL (≈ 10.4 µM); with Klebsiella pneumoniae [3], 32 µg/mL (≈ 83.4 µM); with Escherichia coli [4], 0.25 µg/mL (≈ 0.652 µM); with Klebsiella pneumoniae [5], > 32 µg/mL; with Escherichia coli [6] it was 0.5 µg/mL (≈ 1.3 µM).
For the molecule `CCN1CCN(C(=O)N[C@@H](C(=O)N[C@@H]2C(=O)N3[C@@H]2SC(C)(C)[C@@H]3C(=O)O)c2ccccc2)C(=O)C1=O` [PIPERACILLIN], the MIC is 16 µg/mL in the test with Klebsiella pneumoniae [7], 16 µg/mL in the test on Klebsiella pneumoniae [8], 16 µg/mL in the test on Klebsiella pneumoniae [9] and 8 µg/mL with Klebsiella pneumoniae [10].
For the molecule `CN(C)c1cc(NC(=O)CNC(C)(C)C)c(O)c2c1C[C@H]1C[C@H]3[C@H](N(C)C)C(O)=C(C(N)=O)C(=O)[C@@]3(O)C(O)=C1C2=O` [TIGECYCLINE], the MIC is 0.38 µg/mL (≈ 0.649 µM) in the test on Klebsiella pneumoniae [11]; 0.38 µg/mL (≈ 0.649 µM) in the test with Klebsiella pneumoniae [12]; 0.38 µg/mL (≈ 0.649 µM) in the test on Klebsiella pneumoniae [13]; 0.06 µg/mL (≈ 0.102 µM) in the test with Escherichia coli [14]; 0.06 µg/mL (≈ 0.102 µM) against Escherichia coli [15]; 0.5 µg/mL (≈ 0.854 µM) in the test on Klebsiella pneumoniae [16].
GENTAMICIN: the MIC was 1 µg/mL with Klebsiella pneumoniae [1]; 1 µg/mL with Klebsiella pneumoniae [2]; 1 µg/mL against Klebsiella pneumoniae [3]; 0.12 µg/mL in the test on Escherichia coli [4]; 1 µg/mL against Klebsiella pneumoniae [5]; 0.12 µg/mL with Escherichia coli [17].
For POLYMYXIN B, the MIC in the test on Klebsiella pneumoniae [1] was 2 µg/mL; against Klebsiella pneumoniae [2] it was 2 µg/mL; against Klebsiella pneumoniae [3], 2 µg/mL; in the test with Escherichia coli [4], 0.38 µg/mL; in the test on Klebsiella pneumoniae [5], 2 µg/mL; in the test on Escherichia coli [17], 0.38 µg/mL.
